In paper PMC5515969, “Effects of 31 FDA approved small-molecule kinase inhibitors on isolated rat liver mitochondria” (Archives of Toxicology, 2016):
Read-outs that look alike come from different tables or passages of the source.

Assays:
[1] = system: isolated rat liver mitochondria; experiment: Mitochondrial oxygen consumption (glutamate/malate or succinate driven, state 4 and state 3); assay type: biochemical; as to State 3 respiration driven by succinate at 10XCmax: key: 0 indicates that the drug had no effects (negative); as to State 3 respiration driven by succinate at 1XCmax: key: 0 indicates that the drug had no effects (negative)
In short: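 Rat liver mitochondria (1 mg/ml protein) exposed 5 min to kinase inhibitors in 0.1% DMSO, then O2 consumption measured by Clark-type electrode with glutamate/malate or succinate (state 4), ADP added after 3 min (state 3). Rates normalized to 0.1% DMSO controls set to 1.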

RCC I = RCC I activity in submitochondrial particles; assay type: biochemical, rat; design: key to RCC I at 10XCmax / RCC I at 100XCmax / RCC I at 50XCmax / RCC I at 30XCmax / RCC I at 20XCmax: activity relative to DMSO-treated controls (control set as 1 = 100%); settings: for RCC activity I: 15 min
In short: (§1)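 Inhibitors preincubated 15 min with submitochondrial particles (1 mg/ml) before activity readout. RCC I (rotenone-sensitive fraction) and I/V: A340, and RCC II: A600, each every 1 min for 6 min; RCC III/IV: A550 every 10 s for 2 min. Activities relative to DMSO control set as 1.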

RCC II = molecular target: T1, RCC II (Rattus norvegicus, UniProt P21913+Q641Z9+Q6PCT8+Q920L2); experiment: RCC II activity in submitochondrial particles; assay type: biochemical; design: key: activity relative to DMSO-treated controls (control set as 1 = 100%); settings: DMSO treated samples set as 1
T1 construct: Submitochondrial particles were prepared by subjecting the intact mitochondria to three successive freeze–thaw cycles; from tissue; host or cells: rat liver mitochondria, used as submitochondrial particles
In short: as §1

RCC III = RCC III activity in submitochondrial particles; assay type: biochemical, rat; settings: 15 min, DMSO-treated = 100
In short: as §1

RCC IV = RCC IV activity in submitochondrial particles; assay type: biochemical, rat; settings: 15 min, DMSO-treated = 100
In short: as §1

RCC V = RCC V activity in submitochondrial particles; assay type: biochemical, rat; settings: for RCC activity V: 15 min, DMSO-treated = 100; as to RCC V at 5XCmax: key: 0 indicates that the drug had no effects (negative)
In short: as §1

[2] = system: isolated rat liver mitochondria; experiment: Mitochondrial inner membrane potential (MMP), Rhodamine 123; assay type: biochemical
Description: Fig. 3 KI effects on mitochondrial inner membrane potential (MMP). […] In a, c, data are means and standard derivations from three separate experiments. *p < 0.05 as compared to DMSO-treated samples at the end of experiments. In b, data are means of two independent experiments

[3] = system: isolated rat liver mitochondria; experiment: Mitochondrial swelling (absorbance at 535 nm); assay type: biochemical; as to Swelling 5XCmax: key: 0 indicates that the drug had no effects (negative)
[4] = Solubility of DMSO stock for 100X/50X Cmax testing; assay type: physicochemical; settings: solubility in DMSO
Description: Supplement 204_2016_1918_MOESM3_ESM.xlsx, sheet "Sheet1" | column: 100 Cmax; 50 Cmax; note

[5] = system: isolated rat liver mitochondria; settings: positive control alamethicin treated samples
[6] = cited from earlier work
[7] = system: isolated rat liver mitochondria; experiment: Mitochondrial ROS production (CM-H2DCFDA); settings: DMSO treated samples set as 1
RCC I–V = experiment: Activities of RCC I–V, overall statements; assay type: biochemical, rat; settings: submitochondrial particles, up to 100-fold Cmax or highest testable concentration
Protocol: KIs were incubated with submitochondrial particles (1 mg/ml) for 15 min and then RCC I–V activities measured. […] The activities of DMSO-treated samples (controls) were set as 1. […] The difference between the activity from rotenone-containing buffer and rotenone-absent buffer was considered as RCC I activity. […] For measuring RCC I/V and II activity, the changes in absorbance at 340 and 600 nm, respectively, were determined every 1 min for 6 min. For measuring RCC III and RCC IV, the changes in absorbance at 550 nm were measured every 10 s for 2 min.

[8] = system: isolated rat liver mitochondria; experiment: Mitochondrial toxicity, any endpoint, intact mitochondria and submitochondrial particles; assay type: biochemical; settings: any endpoint
Protocol: Rats were anesthetized by an intraperitoneal injection of Nembutal and the liver perfused with PBS to remove the blood. The liver was then cut into small pieces and homogenized using a Dounce type homogenizer in the ice-cold isolation buffer (IB) containing 200 mM sucrose, 10 mM Tris-MOPS, 1 mM EGTA (pH 7.4). The sample was then centrifuged at 600g for 10 min. The supernatant was further centrifuged at 7500g for 10 min, and the pellets was washed once with the IB and centrifuged again at 7500g for 10 min to collect mitochondria. […] Before drug treatment, the protein concentration was adjusted to 1 mg/ml using appropriate buffer. […] Briefly, mitochondrial and cytosolic fractions from four different preparations using four rats were diluted using the Laemmli protein loading buffer and subject to SDS-PAGE with 4–20% gradient gels. The proteins were blotted to PVDF membranes and detected using antibodies against GAPDH, ATP5A, UQCRC2, SDHB, and NDUFB8.
The aliquoted stock solutions were kept for less than one month and each tube was used only once. The KIs were added to the mitochondria at 1:1000 dilutions. […] The Cmax data were from clinical trials which used FDA recommend dosages, route of administration, and duration. […] The final concentration of DMSO for drug treatment was always 0.1%, and control treatments were 0.1% DMSO.

[9] = ref FDA product labeling; cited from earlier work
[10] = 1XCmax, DMSO treated samples set as 1
[11] = 2.5XCmax, DMSO treated samples set as 1
[12] = 5XCmax, DMSO treated samples set as 1
[13] = 10XCmax, DMSO treated samples set as 1
[14] = 20XCmax, DMSO treated samples set as 1
[15] = 1XCmax, difference in signal between KI and DMSO treated samples at the end of experiments
[16] = 2.5XCmax, difference in signal between KI and DMSO treated samples at the end of experiments
[17] = 5XCmax, difference in signal between KI and DMSO treated samples at the end of experiments
[18] = 10XCmax, difference in signal between KI and DMSO treated samples at the end of experiments
[19] = 20XCmax, difference in signal between KI and DMSO treated samples at the end of experiments
[20] = human therapeutic Cmax at FDA recommended dosages, ref product labeling and drug approval packages at the official FDA website
[21] = 10-fold Cmax, oxygen consumption, DMSO-treated = 1
[22] = 20-fold Cmax, oxygen consumption, DMSO-treated = 1
[23] = 30-fold Cmax, oxygen consumption, DMSO-treated = 1

T1 sequence (Q920L2 35-656): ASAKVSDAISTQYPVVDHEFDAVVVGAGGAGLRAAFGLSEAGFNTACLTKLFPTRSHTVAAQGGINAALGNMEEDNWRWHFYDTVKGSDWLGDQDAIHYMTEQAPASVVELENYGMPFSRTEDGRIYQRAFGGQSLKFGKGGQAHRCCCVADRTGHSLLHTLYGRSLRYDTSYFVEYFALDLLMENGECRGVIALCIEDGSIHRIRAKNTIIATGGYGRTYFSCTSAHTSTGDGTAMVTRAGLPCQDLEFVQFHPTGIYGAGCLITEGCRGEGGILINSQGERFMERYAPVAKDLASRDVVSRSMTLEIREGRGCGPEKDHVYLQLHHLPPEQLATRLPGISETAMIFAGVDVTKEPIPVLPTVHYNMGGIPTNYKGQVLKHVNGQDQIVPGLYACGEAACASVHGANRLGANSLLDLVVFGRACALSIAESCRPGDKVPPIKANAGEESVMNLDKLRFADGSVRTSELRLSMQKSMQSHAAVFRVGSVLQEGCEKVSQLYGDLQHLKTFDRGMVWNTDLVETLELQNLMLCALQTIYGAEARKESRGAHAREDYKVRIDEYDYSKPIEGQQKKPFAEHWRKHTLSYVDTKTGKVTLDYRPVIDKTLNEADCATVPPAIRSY
T1 sequence (P21913 31-282): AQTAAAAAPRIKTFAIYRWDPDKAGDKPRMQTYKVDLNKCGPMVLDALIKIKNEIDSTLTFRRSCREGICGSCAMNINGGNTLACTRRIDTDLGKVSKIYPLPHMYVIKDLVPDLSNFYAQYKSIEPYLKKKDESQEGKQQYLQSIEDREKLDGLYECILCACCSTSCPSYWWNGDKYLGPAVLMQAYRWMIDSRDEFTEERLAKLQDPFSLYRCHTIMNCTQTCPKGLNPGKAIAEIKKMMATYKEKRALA
T1 sequence (Q641Z9 1-169): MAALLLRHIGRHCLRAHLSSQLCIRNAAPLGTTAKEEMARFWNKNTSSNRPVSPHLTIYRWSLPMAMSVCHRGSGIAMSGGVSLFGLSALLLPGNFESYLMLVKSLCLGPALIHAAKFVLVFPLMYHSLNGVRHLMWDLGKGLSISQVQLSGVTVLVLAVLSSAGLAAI
T1 sequence (Q6PCT8 57-159): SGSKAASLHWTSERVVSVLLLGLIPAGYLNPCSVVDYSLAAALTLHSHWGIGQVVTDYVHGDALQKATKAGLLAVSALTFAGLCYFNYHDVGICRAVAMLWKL

With `CCc1cc2c(cc1N1CCC(N3CCOCC3)CC1)C(C)(C)c1[nH]c3cc(C#N)ccc3c1C2=O` [Alectinib] the “State 3 respiration driven by succinate at 1XCmax” value [1, 10] was 0, the “State 4 respiration driven by succinate at 1XCmax” value [1, 10] was 0 and the “State 3 respiration driven by succinate at 2.5XCmax” value [1, 11] was 0. For the same molecule, the “State 4 respiration driven by succinate at 2.5XCmax” value [1, 11] was 0, the “State 3 respiration driven by succinate at 5XCmax” value [1, 12] was 0 and the “State 4 respiration driven by succinate at 5XCmax” value [1, 12] was 0. For the same molecule, the “State 3 respiration driven by succinate at 10XCmax” value [1, 13] was 0, the “State 4 respiration driven by succinate at 10XCmax” value [1, 13] was 0 and the “State 3 respiration driven by succinate at 20XCmax” value [1, 14] was 0. For the same molecule, the “State 4 respiration driven by succinate at 20XCmax” value [1, 14] was 0, the “RCC I at 10XCmax” value (RCC I; [13]) was 0 and the “RCC activity I” value (RCC I; 20-fold Cmax, DMSO-treated = 100) was 89.39 ± 2.98 % of control. The “RCC I at 20XCmax” value (RCC I; 20XCmax, DMSO-treated = 100) was 89.39±2.98, the “RCC II at 1.0XCmax” value (RCC II; 1.0XCmax) was 0 and the “RCC II at 2.5XCmax” value (RCC II; 2.5XCmax) was 0. For the same molecule, the “RCC II at 5XCmax” value (RCC II; 5XCmax) was 0, the “RCC II at 10XCmax” value (RCC II; 10XCmax) was 0 and the “RCC II at 20XCmax” value (RCC II; 20XCmax) was 0. For the same molecule, the “RCC activity III” value (RCC III; 20-fold Cmax) was 116.05 ± 4.72 % of control, the “RCC activity IV” value (RCC IV; 20-fold Cmax) was 101.46 ± 1.66 % of control and the “RCC V at 5XCmax” value (RCC V; [12]) was 0. For the same molecule, the “RCC activity V” value (RCC V; 20-fold Cmax) was 106.30 ± 11.74 % of control, the “MMP measured by Rhodamine 123 at 1XCmax” value [2, 15] was 0 and the “MMP measured by Rhodamine 123 at 2.5XCmax” value [2, 16] was 0. For the same molecule, the “MMP measured by Rhodamine 123 at 5XCmax” value [2, 17] was 0, the “MMP measured by Rhodamine 123 at 10XCmax” value [2, 18] was 0 and the “MMP measured by Rhodamine 123 at 20XCmax” value [2, 19] was 0. For the same molecule, the “Swelling 1XCmax” value [3, 15] was 0, the “Swelling 2.5XCmax” value [3, 16] was 0 and the “Swelling 5XCmax” value [3, 17] was 0. The “Swelling 10XCmax” value [3, 18] was 0, the “Swelling 20XCmax” value [3, 19] was 0 and the “DMSO stock for 50 Cmax” value ([4]; stock for 50 Cmax) was “not soluble”. For the same molecule, the “DMSO stock for 100 Cmax” value ([4]; stock for 100 Cmax) was “not soluble”, the “Cytochrome c release 1XCmax” value ([5]; 1XCmax) was 0 and the “Cytochrome c release 2.5XCmax” value ([5]; 2.5XCmax) was 0. For the same molecule, the “Cytochrome c release 5XCmax” value ([5]; 5XCmax) was 0, the “Cytochrome c release 10XCmax” value ([5]; 10XCmax) was 0 and the “Cytochrome c release 20XCmax” value ([5]; 20XCmax) was 0. For the same molecule, the Cmax [6, 20] was 1.37 µM, the “Cmax (ng or µg/ml)” value ([6]; human therapeutic maximal blood concentration, ref product labeling) was 0.665 µg/mL and the Cmax ([6]; read-out: Cmax at µM, human therapeutic maximal blood concentration, ref product labeling) was 1.37 µM. The “ROS measured by CM-H2DCFDA at 1XCmax” value ([7]; 1XCmax) was 0, the “ROS measured by CM-H2DCFDA at 2.5XCmax” value ([7]; 2.5XCmax) was 0 and the “ROS measured by CM-H2DCFDA at 5XCmax” value ([7]; 5XCmax) was 0. For the same molecule, the “ROS measured by CM-H2DCFDA at 10XCmax” value ([7]; 10XCmax) was 0 and the “ROS measured by CM-H2DCFDA at 20XCmax” value ([7]; 20XCmax) was 0.

For `COc1cc2nccc(Oc3ccc(NC(=O)C4(C(=O)Nc5ccc(F)cc5)CC4)cc3)c2cc1OC` [Cabozantinib], the “Glutamate/malate driven respiration State 4” value [1, 21] was 1.46 ± 0.08, the “Succinate-driven respiration State 3” value [1, 21] was 1.03 ± 0.01 and the “Succinate-driven respiration State 4” value [1, 21] was 1.23 ± 0.11. For the same molecule, the “Glutamate/malate driven respiration State 3” value [1, 22] was 0.92 ± 0.05, the “Glutamate/malate driven respiration State 4” value [1, 22] was 1.30 ± 0.15 and the “Succinate-driven respiration State 3” value [1, 22] was 0.94 ± 0.06. For the same molecule, the “Succinate-driven respiration State 4” value [1, 22] was 1.24 ± 0.05, the “Glutamate/malate driven respiration State 4” value [1, 23] was 1.55 ± 0.06 and the “Succinate-driven respiration State 3” value [1, 23] was 0.95 ± 0.05. For the same molecule, the “Succinate-driven respiration State 4” value [1, 23] was 1.35 ± 0.18, the “effect on state 4 respiration” value ([1]; highest tested concentrations) was “significant increases” and the “lowest concentration significantly affecting mitochondrial oxygen consumption” value ([1]; tested at 1 to 100-fold Cmax) was “tenfold”. For the same molecule, the “RCC activity I” value (RCC I; 30-fold Cmax, DMSO-treated = 100) was 80.97 ± 2.99 % of control, the “RCC activity III” value (RCC III; 30-fold Cmax) was 90.73 ± 14.60 % of control and the “RCC activity IV” value (RCC IV; 30-fold Cmax) was 113.10 ± 9.48 % of control. The “RCC activity V” value (RCC V; 30-fold Cmax) was 91.99 ± 8.51 % of control, the “lowest concentration decreasing MMP” value [2] was “tenfold” and the “effect on MMP” value ([2]; up to 100-fold Cmax or highest testable concentration) was “decrease in MMP”. The “lowest concentration causing mitochondrial swelling” value [3] was 20 fold Cmax, the “effect on mitochondrial swelling” value ([3]; up to 100-fold Cmax or highest testable concentration, 25 µM calcium chloride) was “significant mitochondrial swelling” and the RCCs inhibited (RCC I–V) was “both RCC I and RCC II”. The “lowest concentration causing significant mitochondrial toxicity” value [8] was 10 fold Cmax, the Cmax [6, 20] was 2.58 µM and the “DILI potential (based on labeling)” value [9] was 0.
